Laboratory results reported in patent KR20140032201A, “로리오라이드를 유효성분으로 함유하는 세포 노화 억제용 조성물” (영남대학교 산학협력단, priority 2012, dated 2014).
Like-named read-outs stand apart in the source and are kept apart here.

Tests used:
[1] = test system: cellular senescence (세포노화); settings: cited from earlier work
[2] = test system: human fibroblasts (사람 섬유아세포); assay: MTT cytotoxicity, human fibroblasts; format: cell-based; settings: 10 ug/ml
[3] = test system: reactive oxygen species in human fibroblasts (활성산소, 사람 섬유아세포); assay: Intracellular reactive oxygen species by DCF flow cytometry, adriamycin-treated human fibroblasts; format: cell-based; settings: 500 nM adriamycin 4 h, 3 days, DCF fluorescence
[4] = test system: human fibroblasts with replicative senescence (복제노화가 유도된 사람 섬유아세포); assay: Replicative senescence, SA-β-gal activity staining, old human fibroblasts; format: cell-based; settings: increasing concentrations
[5] = test system: human fibroblasts (사람 섬유아세포); assay: Adriamycin-induced senescence, SA-β-gal activity staining, human fibroblasts; format: cell-based
[6] = test system: human umbilical vein endothelial cells (제대정맥혈관내피세포); assay: MTT cytotoxicity, umbilical vein endothelial cells; format: cell-based; settings: 10 ug/ml
[7] = test system: human umbilical vein endothelial cells (제대정맥혈관내피세포); assay: Adriamycin-induced senescence, SA-β-gal activity staining, umbilical vein endothelial cells; format: cell-based; settings: 500 nM adriamycin 4 h, then 10 ug/ml, 3 days
[8] = test system: Caenorhabditis elegans (꼬마선충); settings: C. elegans, literature; cited from earlier work
[9] = test system: mouse model (생쥐모델); settings: literature; cited from earlier work

In the case of “epifriedelanol [에피프리에델라놀(epifriedelanol)]”, the “inhibition of cellular senescence” value ([1]; literature) is given as “세포노화를 억제한다”.

With `CC1(C)CC(O)CC2(C)OC(=O)C=C12` (single isomer, unassigned; (-)) [로리오라이드[(-)-loliolide], (-)-loliolide] the “cytotoxicity (MTT)” value [2] was “세포독성이 관찰되지 않았다”, the “reactive oxygen species increased by adriamycin” value [3] was “활성산소도 감소시킴” and the “SA-β-gal activity increased in old cells (replicative senescence)” value [4] was “농도 의존적으로 늙은 세포에서 증가된 SA-β-gal 활성을 감소시킴”. For the same molecule, the “SA-β-gal activity staining increased by adriamycin” value ([5]; 500 nM adriamycin 4 h, then 10 ug/ml, 3 days) was “감소되었으나”, the “concentration dependence of inhibition of adriamycin-increased SA-β-gal activity” value ([5]; increasing concentrations) was “농도를 증가시킬수록 감소함” and the “cytotoxicity (MTT)” value [6] was “세포독성이 관찰되지 않았다”. For the same molecule, the “SA-β-gal activity staining increased by adriamycin” value [7] was “변화가 없었다”.

In the case of `Nc1ccc(S(=O)(=O)c2ccc(N)cc2)cc1` [4,4'-diaminodiphenylsulfone], the healthspan [8] is given as “건강수명을 늘리는” and the “occurrence of ageing-related diseases” value [8] is given as “노화관련 질환의 발생을 억제하며”.

For `CO[C@H]1C[C@@H]2CC[C@@H](C)[C@@](O)(O2)C(=O)C(=O)N2CCCC[C@H]2C(=O)O[C@H]([C@H](C)C[C@@H]2CC[C@@H](O)[C@H](OC)C2)CC(=O)[C@H](C)/C=C(\C)[C@@H](O)[C@@H](OC)C(=O)[C@H](C)C[C@H](C)/C=C/C=C/C=C/1C` [라파마이신(rapamycin), rapamycin], the healthspan [9] is given as “건강수명을 늘리는”, the “occurrence of ageing-related diseases” value [9] is given as “노화관련 질환의 발생을 억제하며” and the “inhibition of cellular senescence” value ([1]; literature) is given as “세포노화 억제 효능이 있는 것으로 보고된”.

In the case of `CS(=O)(=O)Nc1ccc([N+](=O)[O-])cc1OC1CCCCC1` [NS398], the “inhibition of cellular senescence” value ([1]; literature) is given as “세포노화를 억제한다”.

For `CC(=O)N[C@@H](CS)C(=O)O` [N-아세틸시스테인(N-acetylcysteine), N-acetylcysteine], the “inhibition of cellular senescence” value ([1]; literature; NAC)) is given as “세포노화 억제 효능이 있는 것으로 보고된” and the “inhibition of cellular senescence” value ([1]; literature) is given as “세포노화를 억제한다”.

For `O=C1O[C@H]([C@@H](O)CO)C(O)=C1O` [비타민 C], the “inhibition of cellular senescence” value ([1]; literature) is given as “세포노화를 억제한다”.
